The test system of data set [1] is diabetic ob/ob mice. The data set is described as follows: Treatment of diabetic ob/ob mice with UD1 and metformin: post-prandial glucose. The class given is in vivo. The conditions noted are these: 75 mg/kg UD1, 100 mg/kg Met; for mean post-prandial glucose level / mean glucose level: n=10; for mean glucose level: time 0 hours (baseline). As to the method: Before treatment, the mice were assigned to four groups based on baseline glucose levels and body weight (n=10 for each group). Each group of mice was dosed with one of the following: (1) a control substance; (2) 75 mg/kg UD1; (3) 100 mg/kg metformin (Met); or (4) 75 mg/kg UD1 and 100 mg/kg metformin (Met). Post-prandial glucose was measured at time points of 1, 3, 5, 7, and 9 hours following dosing.

Data set [2] in a line: Pharmacokinetic evaluation of three oral UD1 dosage forms in male beagle dogs. The class given is in vivo. The note with it: 100 mg of UD1, fasted, mean of 3 dogs. How it is done:
For all nine dogs, 100 mg of UD1 was administered orally. Each dog was dosed in a fasted state, where food was provided 4 hours following dosing. Blood samples were taken for pharmacokinetic (PK) evaluation at the following time intervals following dosing: 0.5, 1.0, 2.0, 4.0, 6.0, 8.0, 12.0, and 24.0 hours.

Each structure is given as a SMILES string.

A word on the Cmax: it is the peak of the concentration-time curve.

As for `CN(C)C(=N)NC(=N)N` [Met, N,N-dimethylimidodicarbonimidic diamide, reference compound], the “change in glucose levels relative to control, AUC 0-9 hrs” value in data set [1] was -39 mg·h/dL. The “mean post-prandial glucose level” value in data set [1] (1 hour following dosing) came out at 357 mg/dL; in data set [1] (3 hours following dosing), 334 mg/dL; in data set [1] (5 hours following dosing), 459 mg/dL; in data set [1] (7 hours following dosing), 501 mg/dL; in data set [1] (9 hours following dosing) it was 484 mg/dL. Also, in data set [1], the mean glucose level was 389 mg/dL.
With `CCCO[C@H]1CC[C@H](N(C(=O)Nc2ncc(SCC(=O)O)s2)C2CCCCC2)CC1` [UD1, {2-[3-cyclohexyl-3-(trans-4-propoxy-cyclohexyl)-ureido]-thiazol-5-ylsulfanyl}-acetic acid], the “change in glucose levels relative to control, AUC 0-9 hrs” value in data set [1] was -748 mg·h/dL. For the same molecule, the “mean post-prandial glucose level” value in data set [1] (1 hour following dosing) turned out to be 321 mg/dL; in data set [1] (3 hours following dosing), 254 mg/dL; in data set [1] (5 hours following dosing), 376 mg/dL; in data set [1] (7 hours following dosing) it was 382 mg/dL; in data set [1] (9 hours following dosing), 394 mg/dL. The molecule also showed a mean glucose level in data set [1] of 391 mg/dL.
Consider `CCCO[C@H]1CC[C@H](N(C(=O)Nc2ncc(SCC(=O)O)s2)C2CCCCC2)CC1.CN(C)C(=N)NC(=N)N` [Metformin Salt, 1,1-dimethylbiguanide salt of {2-[3-cyclohexyl-3-(trans-4-propoxy-cyclohexyl)-ureido]-thiazol-5-ylsulfanyl}-acetic acid], for which, in data set [2], the “AUC0-∞” value came out at 15802 ng·h/mL and the Cmax stood at 6985 ng/mL.

Values taken from patent US9359313B2, “Use of metformin in combination with a glucokinase activator and compositions comprising metformin and a glucokinase activator” (vTv Therapeutics LLC, priority 2010, dated 2016).
